The results in this text go back to patent US12390437B2, “Itaconic acid derivatives and uses thereof intreating an inflammatory disease or a disease associated with an undesirable immune response” (Sitryx Therapeutics Limited, priority 2019, dated 2025).

Structures can show the parent of a compound that is named as a salt.

This assay concerns IL-6 cytokine output from isolated primary human monocytes. Briefly: Primary human monocyte AlphaLISA IL-6 cytokine assay. Conditions: CD14+ primary human monocytes, LPS 24 hr then Nigericin 1 hour. The format is cell-based. The method, then: Measuring Inhibitory Effects on IL-1β and IL-6 Cytokine Output from Isolated Primary Human Monocytes
The cytokine inhibition profiles of compounds of formula (IW-1) were determined in a CD14^+ isolated primary human monocyte cell assay. All assays were performed in RPMI-1640 growth medium (Gibco), supplemented with heat-inactivated fetal bovine serum (FBS) and 1% penicillin-streptomycin unless specified otherwise. The IL-1β and IL-6 cytokine inhibition assays were each run in a background of isolated primary human monocyte cells as described below. All reagents described were from Sigma-Aldrich unless specified otherwise. Compounds were prepared as 100 mM DMSO stocks.
Primary peripheral blood mononuclear cells (PBMCs) were isolated from human whole blood. Following PBMC isolation, a CD14^+ monocyte isolation step was conducted whereby CD14^+ magnetic beads (Miltenyi Biotec) were incubated for 15 minutes with the PBMC suspension that was previously treated with ice cold T-cell isolation buffer (PBS, 0.5% BSA, 2 mM EDTA). Following bead incubation, the treated cell suspension was passed through a magnetic separation column designed to positively select for magnetically labelled cells. The isolated CD14^+ monocytes were subsequently plated at the appropriate cell density for the assay, prior to compound treatment on the day of plating. Working concentrations of compounds were prepared separately in RPMI-1640 only growth medium and pre-incubated with the cells for 30 minutes (37° C./5% CO2). Following the 30 minute compound pre-incubation, primary monocytes were treated with an appropriate concentration of LPS and subsequently incubated for a 24 hr period (37° C./5% CO2). An appropriate final concentration of Nigericin was then dispensed into the primary monocyte plates and incubated for 1 hour (37° C./5% CO2) before monocyte supernatants were harvested and collected in separate polypropylene 96-well holding plates prior to commencing the AlphaLISA cytokine assay.
Reagents from each of the IL-1β and IL-6 commercial kits (Perkin Elmer) were prepared and run according to the manufacturer's instructions. Subsequently, fluorescence signal was measured in a microplate reader (EnVision® Multilabel Reader, Perkin Elmer).
Percentage inhibition was calculated per cytokine by normalising the sample data to the high and low controls used within each plate (+/−LPS respectively). Percentage inhibition was then plotted against compound concentration and the 50% inhibitory concentration (IC50) was determined from the resultant concentration-response curve.
With `C=C(CC(=O)OCCCCCCCC)C(=O)OCCC#N` [Example 1, 1-(2-cyanoethyl) 4-octyl 2-methylenesuccinate], the midpoint of inhibition, the IC50, lay at 26.9 µM.

Consider `C=C(CC(=O)OCCCCCCCC)C(=O)OCCS(C)(=O)=O` [Example 2, 1-(2-(methylsulfonyl)ethyl) 4-octyl 2-methylenesuccinate], for which the IC50 (usually the concentration at which inhibition is half-maximal) was found to be 13.2 µM.

The compound `C=C(CC(=O)OCCCCCCCC)C(=O)OCCN1C(=O)CCC1=O` [Example 9, 1-(2-(2,5-dioxopyrrolidin-1-yl)ethyl) 4-octyl 2-methylenesuccinate] displayed an IC50 of 10.7 µM.

`COC(=O)/C=C/C(=O)OC` [dimethyl fumarate, reference compound] had an IC50 of 15.7 µM.
